One data set deals with 293 cells. Nature of the data set: Transient transfection LacZ reporter assay of ribozyme self-cleavage. The class given is cell-based. The following applies: for Fold (suppression in reporter gene expression relative to the vector with inactive rz): pMD LacZ vector, functional vs inactive rz, fold=1 means no effect. The source says: The approach is critically dependent upon both the ability of a specific self-cleaving ribozyme (rz) to effect the highly efficient cleavage (>99%) of an mRNA molecule into which it is embedded, and the availability of a small molecule capable of efficiently inhibiting self-cleavage of the cis-acting rz within an intracellular milieu. A first step in our studies was to identify candidate rz sequences capable of efficient cleavage in mammalian cells in the context of an ‘expression’ vector. For this purpose, Applicantsmade use of a transient transfection assay involving a standard mammalian expression vector (Ory, et al., 1996, Proc Natl Acad Sci USA 93, 11400-6) which encodes a LacZ reporter (FIG. 1b). […] After transfection of 293 cells with these vectors, protein extracts were prepared from cells and the β-gal level quantified.
1.5 μl Fugene-6 (Roche, Basel, Switzerland) was diluted in 100 μl OPTIMEM (Gibco, Carlsbad, Calif.) and incubated for 5 minutes at room temperature. This solution was added dropwise to 0.45 μg plasmid DNA and incubated for 15 minutes. The plasmid DNA contains either a wildtype or a mutant ribozyme and a Lacz reporter gene. The DNA mixture was then added dropwise to 3×10^5 HEK 293 cells (plated the previous day in a 35 mm dish). Cells were harvested for β-galactosidase assay 24 hours following transfection.
Plasmids carrying different ribozymes were transfected into HEK293T cells and lysed 24 h later. The cell extracts were incubated with ONPG, and the amount of B-galactosidase in cell extracts was measured by quantifying the processed ONPG using a luminometer.
Cleaving activity was determined by comparing the level of −galactosidase measured in the test sample to a control comprising a point mutation (A-+G) at position 14 which attenuates ribozyme activity. Briefly, transfected HEK293 cells were lysed with a lysis solution and the extracts of cells were separated from cell debris. The extracts were then incubated with ONPG, a chromogenic substrate of β-galactosidase. […] The intensity of yellow light emission was measured with a luminometer (Miller J., Experiments in Molecular Genetics, Cold Spring Harbor Laboratory, Cold Spring Harbor, N.Y. (1972)).

Another data set has as its system N79 rz. Nature of the data set: microbe, parasite or virus in culture. It is filed as cell-based, Schistosoma mansoni. The note with it: for EC50 / maximal fold induction / Foldmax: inhibition of ribozyme activity in cells; for maximal fold induction: read-out: Foldmax; for luciferase protein expression / induced gene expression: double N79 rz; for luciferase activity, emission: untreated 1,555, background 121.

The test system of another data set is double functional N79 rz. Nature of the data set: In vivo induction of luciferase in retina injected with AAV carrying double N79 rz, bioluminescent imaging. More on the design: species or system nude mice. The note with it: for luciferase expression in retina: mice with AAV carrying double functional N79, drug pellet, day 2. On the procedure: FIG. 4 show effective control of gene expression in vivo using rz-based gene regulation system. […] AAV injection was done 3 weeks prior to the first imaging day (day 0). Drug-releasing pellets were implanted subcutaneously in the dorsal neck immediately after the first imaging, and released the drug over 7 days. The toyocamycin pellet contains 10 μg of drug; adenosine pellet 50 μg.
Having documented the ability of the rz-based regulation system to function in mammalian cell culture, a final important issue to be addressed was whether the intracellular machinery and ‘environment’ necessary for self-cleavage was operable in primary cells in vivo. […] After 21 days, the injected animals were imaged for luciferase gene expression using the Xenogen IVIS imager, which provides a quantitative measure ofluciferase expression based on single-photon detection (Contag, et al., 1998, Nat Med 4, 245-7). […] Two days later, all animals were then imaged for luciferase expression. […] Quantification of the photon output indicated gene expression was ‘induced’ 39, 185, and 191-fold in the three mice infected with virus carrying the functional rzs and treated with toyocamycin. […] While the retina may be particularly accessible to ‘inducer’ due to its extensive vascularization, Applicants have shown in preliminary experiments that gene regulation can be accomplished at a number of other anatomical sites in vivo (e.g., muscle and ear).
Prior to imaging, the anesthetized mice were injected with 150 μl of luciferin (30 mg/ml) and the pupils were moistened and dilated with 1% tropicamide. A series of bioluminescent images were taken for up to 30 minutes using the Xenogen IVIS imager. Photon output was quantified at the plateau of the time course using the LivingImage software. Induction in fold was calculated based on the photon output in the retina before and after drug treatment, and was normalized to the photon output from the leg muscles. Adenosine was purchased from Innovative Research of America.

Where [1] appears, read: rz inserted at position A of pMD vector.

Where “and” joins values, the source holds several entries; their conditions need not be identical. Equal values may be shown once. Entries after “also recorded” stand apart in the source; their conditions may differ.

Results on 22 molecules are retold here after US10233447B2, “Self-cleaving ribozymes and uses thereof” (The Children s Medical Center Corporation, priority 2003, dated 2019).

The EC50 is the concentration at which the effect is half-maximal. Lower therefore signals a more potent agent.

With “N94: N79 with shortened stem I, SEQ ID NO: 8 (CCAGCUGAUGAGUCCCAAAUAGGACGAAACGCGCUUCGGUGCGUCCUGG; expressed or natural sequence)”, the “cleavage activity, fold difference between functional and inactive rz” value with 293 cells (rz at position E of pMD vector) was “vastly reduced”.

As to `O=c1[nH]c(=O)n([C@@H]2O[C@H](CO)[C@@H](O)[C@H]2O)cc1F` [5-FluoroUridine], in the data set on N79 rz (Schistosoma mansoni), the EC50 is 5.9 µM and the maximal fold induction turned out to be 120. Moreover, the “luciferase protein expression / induced gene expression” value in the data set on N79 rz (stable cell line) is listed as “induced gene expression”.

For `Nc1ncnc2c1ccn2[C@@H]1O[C@H](CO)[C@@H](O)[C@H]1O` [Tubercidin], in the data set with N79 rz (Schistosoma mansoni), the EC50 came to 2.5 µM and the maximal fold induction turned out to be 58.

`Nc1ncnc2c1nnn2[C@@H]1O[C@H](CO)[C@@H](O)[C@H]1O` [8-Azaadenosine]: in the data set on N79 rz (Schistosoma mansoni), the half-maximal effective concentration (EC50) was 4 µM and the maximal fold induction is 45.

Take `OC[C@H]1O[C@@H](n2cnc3cncnc32)[C@H](O)[C@@H]1O` [Nebularine]: in the data set on N79 rz (Schistosoma mansoni), the EC50 turned out to be 10 µM and the maximal fold induction worked out at 8.

Regarding `NC(=O)c1cn([C@@H]2O[C@H](CO)[C@@H](O)[C@H]2O)c2ncnc(N)c12` [Sangivamycin], in the data set on N79 rz (Schistosoma mansoni), it took 1 µM to reach a half-maximal effect (EC50) and the maximal fold induction came out at 38.

`Nc1ncnc2c1ncn2[C@@H]1O[C@H](CO)[C@@H](O)[C@H]1O` [adenosine]: the “ability to inhibit rz self-cleavage” value with N79 rz is “no ability”. The “luciferase expression in retina” value in the data set on double functional N79 rz is given as “little if any gene expression”.

As for `O=c1[nH]c(=O)n([C@@H]2O[C@H](CO)[C@@H](O)[C@H]2O)cc1Br` [5-BromoUridine], in the data set on N79 rz (Schistosoma mansoni), the EC50 amounted to 267 µM and the maximal fold induction is 16.

As to `CC[n+]1c(-c2ccccc2)c2cc(N)ccc2c2ccc(N)cc21` [Homidium bromide], in the data set on N79 rz (Schistosoma mansoni), a half-maximal response (EC50) required 2 µM and the maximal fold induction was found to be 8.

In the case of `Nc1ncnc2c1ccn2[C@@H]1O[C@H](COP(=O)(O)OP(=O)(O)OP(=O)(O)O)[C@@H](O)[C@H]1O` [Tubercidin-triphosphate], in the data set with N79 rz (Schistosoma mansoni), the EC50 worked out at 2 µM and the maximal fold induction came out at 35.

With `O=c1[nH]cc(F)c(=O)[nH]1` [5-FluoroUracil], in the data set on N79 rz (Schistosoma mansoni), the concentration for a half-maximal effect (EC50) turned out to be 200 µM and the maximal fold induction worked out at 377. The “luciferase protein expression / induced gene expression” value in the data set on N79 rz (stable cell line) was “induced gene expression”.

As to `Nc1ncnc2c1ccn2[C@@H]1O[C@@H]2COP(=O)(O)O[C@H]2[C@H]1O` [Tubercidin-cyclic monophosphate], in the data set with N79 rz, a half-maximal effect (EC50) was put at 34 µM and the Foldmax was 35 fold.

With `CN(C)c1ccc2cc3ccc(N(C)C)cc3nc2c1` [Acridine orange], in the data set with N79 rz (Schistosoma mansoni), the EC50 turned out to be 7 µM and the maximal fold induction came to 4.

As to `N#Cc1cn([C@@H]2O[C@H](CO)[C@@H](O)[C@H]2O)c2ncnc(N)c12` [Toyocamycin], the “luciferase activity, emission” value with N79 rz (0.5 μM, 24 hours) is on record as 66,774 photons per second per 1000 cells; in the data set with N79 rz (1 μM, 24 hours), 242,546 photons per second per 1000 cells; in the data set with N79 rz (1.5 μM, 24 hours) it was 377,655 photons per second per 1000 cells. This molecule displayed an EC50 in the data set with N79 rz (Schistosoma mansoni) of 0.4 µM. The maximal fold induction with N79 rz (Schistosoma mansoni) worked out at 365. Moreover, the “amount of luciferase mRNA” value with N79 rz (northern blot, nucleus and cytoplasm, 24 hours of treatment) was “increased to a level comparable to that of cells carrying inactive rz”. In addition, in the data set with N79 rz (stable cell line, 24 hours), the “concentrations at which toxic effects were observed” value is given as “higher than 1.5 μM”. The “luciferase protein expression / induced gene expression” value in the data set on N79 rz (stable cell line) is “dramatic increase”. Besides, the “induced gene expression level relative to virus carrying inactive rzs” value in the data set on double functional N79 rz (animal showing 191-fold induction) is reported as at most 40%. For the same molecule, in the data set with double functional N79 rz (individual mice, functional rzs, 10 μg pellet subcutaneous, day 2, normalized to leg muscles), the “gene expression 'induced', photon output in retina” value is 39 fold and 185 fold and 191 fold. Further, the “luciferase expression in retina” value in the data set with double functional N79 rz was “readily detectable expression; also recorded: strong induction”.

In the data set with N79 rz, `Nc1ncnc2c1ccn2[C@@H]1O[C@H](COP(=O)(O)O)[C@@H](O)[C@H]1O` [Tubercidin-monophosphate] yielded an EC50 of 2 µM and a Foldmax of 39 fold.

B1: Schisto hammerhead: original hammerhead Sml rz of Schistosoma mansoni lacking loop III, SEQ ID NO: 2 (nucleic acid)
chain: CUGAGAUGCAGGUACAUCCAGCUGACGAGUCCCAAAUAGGACGAAACGCGCGUCCUGGAUUCCACUGCUAUCCAC
modifications: expressed or natural sequence
As for B1, in the data set with 293 cells, the “Fold (suppression in reporter gene expression relative to the vector with inactive rz)” value turned out to be 1 fold. Moreover, the “cleavage activity, fold difference between functional and inactive rz” value in the data set on 293 cells (setting [1]) is “no activity”.

B2: N99: N79 with changes in stem I near the core, SEQ ID NO: 6 (nucleic acid)
chain: CUGAGAUGCAGGUACAUCCCACUGAUGAGUCCCAAAUAGGACGAAACGCGCUUCGGUGCGUCUGGGAUUCCACUGCUAUCCAC
modifications: expressed or natural sequence
On to B2, for which the “cleavage activity, fold difference between functional and inactive rz” value in the data set with 293 cells (rz at position E of pMD vector) is given as “further enhanced activity”.

B3: N117: N79 variant changed near the restriction insertion site, SEQ ID NO: 6 (nucleic acid)
chain: CUGAGAUGCAGGUACAUCCCACUGAUGAGUCCCAAAUAGGACGAAACGCGCUUCGGUGCGUCUGGGAUUCCACUGCUAUCCAC
modifications: expressed or natural sequence
As to B3, the “cleavage activity, fold difference between functional and inactive rz” value in the data set with 293 cells (rz at position E of pMD vector) was “further enhanced activity”.

B4: N27: Sml with tetraloop 5′-UUCG-3′ grafted onto extended stem III, SEQ ID NO: 3 (nucleic acid)
chain: CUGAGAUGCAGGUACAUCCAGCUGACGAGUCCCAAAUAGGACGAAACGCCUUCGGGCGUCCUGGAUUCCACUGCUAUCCAC
modifications: expressed or natural sequence
For B4, the “Fold (suppression in reporter gene expression relative to the vector with inactive rz)” value in the data set on 293 cells is reported as 19 fold. Moreover, in the data set with 293 cells (setting [1]), the “cleavage activity, fold difference between functional and inactive rz” value amounted to 19 fold.

B5: TRSV hammerhead: naturally occurring ribozyme, SEQ ID NO: 53 (nucleic acid)
chain: AUACCCUGUCACCGGAUGUGCUUUCCGGUCUGAUGAGUCCGUGAGGACGAAACAGGACUGUC
modifications: expressed or natural sequence
With B5, in the data set with 293 cells, the “Fold (suppression in reporter gene expression relative to the vector with inactive rz)” value is 1 fold.

B6: Cricket hammerhead: hammerhead Pst-3 rz from the Dolichopoda cave cricket, SEQ ID NO: 1 (nucleic acid)
chain: AUGUGUGUUCCCUCUGCCCCGCUGAUGAGGUCGGGGAGACCGAAAGGGUCAACUCUACGGGGCUAUUACAUGCAAU
modifications: expressed or natural sequence
As to B6, the “Fold (suppression in reporter gene expression relative to the vector with inactive rz)” value in the data set with 293 cells is given as 13 fold. The “cleavage activity, fold difference between functional and inactive rz” value in the data set on 293 cells (setting [1]) was found to be 13 fold.

B7: N93: N79 with shortened stem I, SEQ ID NO: 7 (nucleic acid)
chain: AGGUACAUCCAGCUGAUGAGUCCCAAAUAGGACGAAACGCGCUUCGGUGCGUCCUGGAUUCCACU
modifications: expressed or natural sequence
B7: the “cleavage activity, fold difference between functional and inactive rz” value in the data set on 293 cells (rz at position E of pMD vector) is “vastly reduced”.
